Activity calls are given as the source filed them. The rule behind the calls is not given here.
Columns and labels:
ES-2 [1] = assay: Antiproliferative activity against human ES2 cells assessed as cell death after 72 hrs by Alamar blue viability assay; assay type: functional, cell-based; conditions: ES-2, 72 h
[2] = Hemolytic activity in human RBC measured by hemolysis assay; assay type: toxicity, cell-based; conditions: erythrocyte
Staphylococcus aureus = assay: Antibacterial activity against Staphylococcus aureus; assay type: functional
Escherichia coli = assay: Antibacterial activity against Escherichia coli; assay type: functional
ES-2 [3] = assay: Antiproliferative activity against human ES2 cells at 10 uM assessed as time to induce 50% cell death measured by Annexin V/propidium iodide staining method; assay type: functional
MIA PaCa-2 = assay: Antiproliferative activity against human MIA PaCa-2 cells at 10 uM assessed as time to induce 50% cell death measured by Annexin V/propidium iodide staining method; assay type: functional
HCT-116 [4] = assay: Antiproliferative activity against human HCT-116 cells at 10 uM assessed as time to induce 50% cell death measured by Annexin V/propidium iodide staining method; assay type: functional
ES-2 [5] = assay: Antiproliferative activity against human ES2 cells at 10 uM pretreated with 25 uM pan-caspase inhibitor Q-VD-OPh and assessed as induction of cell death measured after 13 hrs; assay type: functional, cell-based
HCT-116 [6] = assay: Antiproliferative activity against human HCT-116 cells at 10 uM pretreated with 25 uM pan-caspase inhibitor Q-VD-OPh and assessed as induction of cell death measured after 13 hrs; assay type: functional, cell-based
ES-2 [7] = assay: Induction of PARP-1 cleavage in human ES2 cells measured after 1 to 7 hrs; assay type: functional, cell-based; conditions: time 1-7 hrs
HCT-116 [8] = assay: Induction of PARP-1 cleavage in human HCT-116 cells measured after 1 to 7 hrs; assay type: functional, cell-based; conditions: time 1-7 hrs
ES-2 [9] = assay: Induction of apoptosis in human ES2 cells assessed as change in cell membrane blebbing; assay type: functional, cell-based
ES-2 [10] = assay: Induction of apoptosis in human ES2 cells assessed as change in chromatin condensation; assay type: functional, cell-based
ES-2 [11] = assay: Induction of ROS production in human ES2 cells at 5 to 25 uM measured by carboxy-H2DCFDA fluorescence assay; assay type: functional, cell-based; conditions: dose 5-25 µM
HCT-116 [12] = assay: Induction of ROS production in human HCT-116 cells at 5 to 25 uM measured by carboxy-H2DCFDA fluorescence assay; assay type: functional, cell-based; conditions: dose 5-25 µM
ES-2 [13] = assay: Induction of ROS production in human ES2 cells at 10 to 25 uM measured by MitoSox red fluorescence assay; assay type: functional, cell-based; conditions: dose 10-25 µM
ES-2 [14] = assay: Induction of ROS-induced lipid peroxidation in human ES2 cells at 10 uM measured after 1 hr; assay type: functional, cell-based
HCT-116 [15] = assay: Induction of ROS-induced lipid peroxidation in human HCT-116 cells at 10 uM measured after 1 hr; assay type: functional, cell-based
4T1 [16] = assay: Induction of ROS-induced lipid peroxidation in mouse 4T1 cells at 10 uM measured after 1 hr; assay type: functional, cell-based
ES-2 [17] = assay: Induction of ROS-induced lipid peroxidation in human ES2 cells at 10 uM pretreated with DFO and measured after 1 hr; assay type: functional, cell-based
HCT-116 [18] = assay: Induction of ROS-induced lipid peroxidation in human HCT-116 cells at 10 uM pretreated with DFO and measured after 1 hr; assay type: functional, cell-based
4T1 [19] = assay: Induction of ROS-induced lipid peroxidation in mouse 4T1 cells at 10 uM pretreated with DFO and measured after 1 hr; assay type: functional, cell-based
ES-2 [20] = assay: Induction of cell death in human ES2 cells at 5 to 25 uM in presence of 250 uM trolox and measured after 14 hrs; assay type: functional, cell-based; conditions: dose 5-25 µM
ES-2 [21] = assay: Induction of cell death in human ES2 cells at 5 to 25 uM in presence of 2 uM ferrostatin-1 and measured after 14 hrs; assay type: functional, cell-based; conditions: dose 5-25 µM
ES-2 [22] = assay: Induction of cell death in human ES2 cells at 5 to 25 uM in presence of 100 uM DFO and measured after 14 hrs; assay type: functional, cell-based; conditions: dose 5-25 µM
HCT-116 [23] = assay: Induction of cell death in human HCT-116 cells at 5 to 25 uM in presence of 250 uM trolox and measured after 10 hrs; assay type: functional, cell-based; conditions: dose 5-25 µM
HCT-116 [24] = assay: Induction of cell death in human HCT-116 cells at 5 to 25 uM in presence of 2 uM ferrostatin-1 and measured after 10 hrs; assay type: functional, cell-based; conditions: dose 5-25 µM
HCT-116 [25] = assay: Induction of cell death in human HCT-116 cells at 5 to 25 uM in presence of 100 uM DFO and measured after 10 hrs; assay type: functional, cell-based; conditions: dose 5-25 µM
A549 [26] = assay: Induction of cell death in human A549 cells at 5 to 25 uM in presence of 250 uM trolox and measured after 12 hrs; assay type: functional, cell-based; conditions: dose 5-25 µM
A549 [27] = assay: Induction of cell death in human A549 cells at 5 to 25 uM in presence of 2 uM ferrostatin-1 and measured after 12 hrs; assay type: functional, cell-based; conditions: dose 5-25 µM
A549 [28] = assay: Induction of cell death in human A549 cells at 5 to 25 uM in presence of 100 uM DFO and measured after 12 hrs; assay type: functional, cell-based; conditions: dose 5-25 µM
4T1 [29] = assay: Induction of cell death in mouse 4T1 cells at 5 to 25 uM in presence of 250 uM trolox and measured after 18 hrs; assay type: functional, cell-based; conditions: dose 5-25 µM
4T1 [30] = assay: Induction of cell death in mouse 4T1 cells at 5 to 25 uM in presence of 2 uM ferrostatin-1 and measured after 18 hrs; assay type: functional, cell-based; conditions: dose 5-25 µM
4T1 [31] = assay: Induction of cell death in mouse 4T1 cells at 5 to 25 uM in presence of 100 uM DFO and measured after 18 hrs; assay type: functional, cell-based; conditions: dose 5-25 µM
HCT-116 [32] = assay: Induction of cell death in human HCT-116 cells at 5 to 25 uM in presence of 5 mM NAC and measured after 10 hrs; assay type: functional, cell-based; conditions: dose 5-25 µM
A549 [33] = assay: Induction of cell death in human A549 cells at 5 to 25 uM in presence of 5 mM NAC and measured after 12 hrs; assay type: functional, cell-based; conditions: dose 5-25 µM
[34] = molecular target: T1, Phospholipid hydroperoxide glutathione peroxidase GPX4 (Homo sapiens) (UniProt P36969); assay: Inhibition of GPX4 in human ES2 cells at 10 uM measured after 1 hr by phosphotidylcholine hydroperoxide (PCOOH) LC-MS based assay relative to control; assay type: cell-based
T1 sequence (whole entry): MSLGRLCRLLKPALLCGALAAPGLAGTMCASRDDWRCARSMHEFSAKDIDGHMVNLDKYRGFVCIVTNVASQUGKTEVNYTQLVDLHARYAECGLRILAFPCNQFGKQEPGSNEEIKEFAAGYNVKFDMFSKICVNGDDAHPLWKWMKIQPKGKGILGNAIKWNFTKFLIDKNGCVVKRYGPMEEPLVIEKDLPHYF

[35] = molecular target: T2, Thioredoxin, mitochondrial (Homo sapiens) (UniProt Q99757); assay: Inhibition of thioredoxin in human HCT-116 cells at 20 uM relative to control; assay type: cell-based
T2 sequence (whole entry): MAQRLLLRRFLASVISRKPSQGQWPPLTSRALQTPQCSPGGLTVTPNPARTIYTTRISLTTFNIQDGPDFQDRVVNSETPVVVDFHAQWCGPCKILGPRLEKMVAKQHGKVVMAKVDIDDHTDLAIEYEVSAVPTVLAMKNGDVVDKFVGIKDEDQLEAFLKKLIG

[36] = molecular target: T2, Thioredoxin, mitochondrial (Homo sapiens); assay: Inhibition of human thioredoxin at 0.5 to 10 uM measured after 30 mins relative to control; conditions: dose 0.5-10 µM
MCF-10A = assay: Antiproliferative activity against human MCF-10A cells after 72 hrs by Alamar blue viability assay; assay type: functional, cell-based
HFF-1 = assay: Antiproliferative activity against human HFF-1 cells after 72 hrs by Alamar blue viability assay; assay type: functional, cell-based; conditions: HFF-1, 72 h
4T1 [37] = assay: Antitumor activity against mouse 4T1 cells xenografted immunocompetent Balb/c mouse assessed as tumor growth inhibition at 50 mg/kg, ip administered twice a week as 5 doses; assay type: functional; conditions: 4T1, ip, read-out: TGI
4T1 [38] = assay: Antitumor activity against mouse 4T1 cells xenografted immunodeficient SCID mouse assessed as tumor growth at 50 mg/kg, ip administered twice a week as 5 doses; assay type: functional, organism-based
[39] = AUC in C57BL/6 mouse at 40 mg/kg, ip; assay type: ADME, organism-based; design: dose 40 mg/kg; conditions: in vivo
[40] = Half-life in C57BL/6 mouse at 40 mg/kg, ip; assay type: ADME, organism-based; conditions: in vivo
HCT-116 [41] = assay: Antiproliferative activity against human HCT-116 cells assessed as cell death after 72 hrs by Alamar blue viability assay; assay type: functional, cell-based; conditions: HCT-116, 72 h

Q: Which IC50 (ES-2 [1]) does the source give for C[C@@H]1CC[C@@]23C[C@H](O)C(=O)[C@@]2(O)[C@]1(C)[C@H](OC(=O)CCl)C[C@@H](C1=CCn2c(=O)n(-c4ccccc4)c(=O)n2C1)[C@@H]3C here?
A: 1.6 µM

Q: What about the Activity [2] of the same molecule?
A: Non-Toxic

Q: What about the MIC (Staphylococcus aureus) of the same molecule?
A: > 64 µg/mL

Q: And the MIC (Escherichia coli)?
A: > 64 µg/mL

Q: What about the Time (ES-2 [3]) of the same molecule?
A: 1 h

Q: What about the Time (MIA PaCa-2) of the same molecule?
A: 1.5 h

Q: What about the Time (HCT-116 [4]) of the same molecule?
A: 7 h

Q: What about the Activity (ES-2 [5]) of the same molecule?
A: Active

Q: And the Activity (HCT-116 [6])?
A: Active

Q: What about the Activity (ES-2 [7]) of the same molecule?
A: inactive

Q: What about the Activity (HCT-116 [8]) of the same molecule?
A: inactive

Q: And the Activity (ES-2 [9])?
A: inactive

Q: What about the Activity (ES-2 [10]) of the same molecule?
A: inactive

Q: What about the Activity (ES-2 [11]) of the same molecule?
A: Active

Q: What about the Activity (HCT-116 [12]) of the same molecule?
A: Active

Q: And the Activity (ES-2 [13])?
A: Active

Q: What about the Activity (ES-2 [14]) of the same molecule?
A: Active

Q: And the Activity (HCT-116 [15])?
A: Active

Q: What about the Activity (4T1 [16]) of the same molecule?
A: Active

Q: And the Activity (ES-2 [17])?
A: inactive

Q: What about the Activity (HCT-116 [18]) of the same molecule?
A: inactive

Q: What about the Activity (4T1 [19]) of the same molecule?
A: inactive

Q: What about the Activity (ES-2 [20]) of the same molecule?
A: inactive

Q: What about the Activity (ES-2 [21]) of the same molecule?
A: inactive

Q: And the Activity (ES-2 [22])?
A: inactive

Q: And the Activity (HCT-116 [23])?
A: inactive

Q: What about the Activity (HCT-116 [24]) of the same molecule?
A: inactive

Q: And the Activity (HCT-116 [25])?
A: inactive

Q: What about the Activity (A549 [26]) of the same molecule?
A: inactive

Q: What about the Activity (A549 [27]) of the same molecule?
A: inactive

Q: What about the Activity (A549 [28]) of the same molecule?
A: inactive

Q: And the Activity (4T1 [29])?
A: inactive

Q: And the Activity (4T1 [30])?
A: inactive

Q: And the Activity (4T1 [31])?
A: inactive

Q: And the Activity (HCT-116 [32])?
A: inactive

Q: And the Activity (A549 [33])?
A: inactive

Q: What about the inhibition [34] of the same molecule?
A: inactive

Q: What about the inhibition [35] of the same molecule?
A: Active

Q: What about the inhibition [36] of the same molecule?
A: Active

Q: And the IC50 (MCF-10A)?
A: 3.1 µM

Q: What about the IC50 (HFF-1) of the same molecule?
A: 4.1 µM

Q: What about the inhibition in vivo at 50 mg/kg (4T1 [37]) of the same molecule?
A: 40%

Q: And the Activity (4T1 [38])?
A: inactive

Q: What about the AUC [39] of the same molecule?
A: 7040 ng·h/mL

Q: What about the half-life [40] of the same molecule?
A: 9.96 min

Q: What about the IC50 (HCT-116 [41]) of the same molecule?
A: 3.5 µM

Q: With CC1=CC(C)=[N+]2C1=Cc1ccc(CCC(=O)NCCCn3cc(CN4C(=O)C5CC=C([C@@H]6C[C@@H](OC(=O)CI)[C@]7(C)[C@H](C)CC[C@]8(C[C@H](O)C(=O)[C@]87O)[C@H]6C)CC5C4=O)nn3)n1[B-]2(F)F (some centres not stated) as the molecule, how does the IC50 (ES-2 [1]) read?
A: 1.5 µM

Q: What about the IC50 (HCT-116 [41]) of the same molecule?
A: 15.7 µM

Q: For CC1=CC(C)=[N+]2C1=Cc1ccc(CCC(=O)NCCCn3cc(CN4C(=O)C5CC=C([C@@H]6C[C@@H](OC(=O)CCl)[C@]7(C)[C@H](C)CC[C@]8(C[C@H](O)C(=O)[C@]87O)[C@H]6C)CC5C4=O)nn3)n1[B-]2(F)F (some centres not stated), which IC50 (ES-2 [1]) is on record?
A: 5.3 µM

Q: What about the IC50 (HCT-116 [41]) of the same molecule?
A: 14.2 µM

Q: Which results are given for CC(=O)OCC(=O)O[C@@H]1C[C@@H](C2=CCn3c(=O)n(-c4ccccc4)c(=O)n3C2)[C@H](C)[C@@]23CC[C@@H](C)[C@]1(C)[C@]2(O)C(=O)[C@@H](O)C3?
A: IC50 (ES-2 [1]): > 100 µM; IC50 (HCT-116 [41]): > 100 µM

Reference: ChEMBL document CHEMBL5050851, “Compounds that induce ferroptic cell death” (2020)
